# Experiments:
# [1] = Solubility of rapamycin in reconstituted suspension by light scattering; type: physicochemical; settings: saline or isotonic; reconstituted suspension of the pharmaceutical composition in 0.9% saline; mean±95% CI
# Method: The change in intensity of light scattering in diluted samples of the reconstituted suspension of the pharmaceutical composition was used as a measure to determine the in vitro dissolution or disintegration of the nanoparticles, which implicates the release of rapamycin from the nanoparticles of the pharmaceutical composition. The percent of rapamycin released at any given time was determined using the light scattering intensity at zero time and at time t. The intensity of light scattering, measured by the Malvern Zetasizer Nano, is relative to the number of nanoparticles present in the pharmaceutical composition. […] If the release of rapamycin from the nanoparticles is controlled by the solubility limit and the reconstituted suspension is diluted to a concentration within the solubility range, then the nanoparticles should rapidly dissolve, causing the rapamycin to be readily released from the nanoparticles of the pharmaceutical composition, and the light scattering intensity will approach zero.
# When the suspensions were diluted to concentrations above the rapamycin solubility, the nanoparticles only partially disintegrated and dissolved, and light scattering was observed. […] The solubility of rapamycin was determined as the concentration at which the intensity of the scattered light begins to increase linearly.
# [2] = Rapamycin solubility from light scattering intensity of diluted reconstituted nanoparticle suspension; type: physicochemical; settings: saline or isotonic; in 0.9% saline solution; from light scattering intensity vs rapamycin concentration of reconstituted albumin-rapamycin nanoparticle suspension; read-out: solubility point of rapamycin
# Method: FIG. 5 depicts light scattering intensity (kcps) as a function of rapamycin concentration from a reconstituted suspension of the pharmaceutical composition comprising nanoparticles comprising rapamycin and albumin. When the suspensions were diluted to concentrations below the rapamycin solubility, the nanoparticles completely disintegrated and dissolved (see left 7-8 data points on graph). However, when the suspensions were diluted to concentrations above the rapamycin solubility, the nanoparticles only partially disintegrated and dissolved, and light scattering was observed (see right 4-5 data points on graph).
# The albumin-based rapamycin nanoparticle compositions described herein in some embodiments have a particular in vitro release kinetic behavior. […] In this assay, the particle size and intensity of light scattered by the particles are measured by DLS over time following a reduction in particle concentration. In some embodiments, the release kinetics are determined by diluting the pharmaceutical composition in a 0.9% saline solution. In some embodiments, the release kinetics are determined by diluting the pharmaceutical composition in a 5% human albumin solution.
# In some embodiments, the in vitro release is determined using the dynamic light scattering method. […] In some embodiments, the intensity of light scattered is measured at a scattering angle of 173°.
compound,measurement,setting,value
CO[C@H]1C[C@@H]2CC[C@@H](C)[C@@](O)(O2)C(=O)C(=O)N2CCCC[C@H]2C(=O)O[C@H]([C@H](C)C[C@@H]2CC[C@@H](O)[C@H](OC)C2)CC(=O)[C@H](C)/C=C(\C)[C@@H](O)[C@@H](OC)C(=O)[C@H](C)C[C@H](C)/C=C/C=C/C=C/1C [rapamycin],solubility,[1],16.1 ± 1.8 µg/mL
same,solubility,[2],16.1 ± 1.8 µg/mL

# — US11497737B2, “Pharmaceutical compositions of albumin and rapamycin” (Abraxis BioScience, LLC, priority 2019, dated 2022)
